Results on three substances are retold here after patent publication US8076059B2 (priority 2003, dated 2011).

Common to all, as to parameters: species or system mice
Holding throughout (conditions): mouse, in vivo

Experiment [1] relates to peripheral mast cells.
For experiment [2], the system named is anti-PA IgG.
The test system of experiment [3] is CD4 T-cells.

On to TNF-α, for which, in experiment [1], the “lymph node hypertrophy after direct injection into footpads” value is reported as “marked lymph node hypertrophy” and the “time of maximal lymph node growth” value turned out to be 48 h. Consider cholera toxin [CT], for which, in experiment [2], the “adjuvant activity, serum anti-PA IgG by ELISA on day 175” value is recorded as “significant adjuvant activity over PA alone” and the “adjuvant activity, serum anti-PA IgG geometric mean titers” value was “significant adjuvant activity at all doses tested”. Turning to pertussis toxin, in experiment [3], the “T-cell recruitment to draining lymph nodes after T-cell pretreatment” value is “inhibited T-cell recruitment to draining lymph nodes”.
